The record followed here is patent US6599715B1, “Real time viability detection of bacterial spores” (priority 1999, dated 2003).

The test system of this experiment is Bacillus globigii spores. The format is cell-based. Conditions: relative germination; phase change monitored at 450 nm over 10 minutes; 3.6×10^8 spores per ml in 20 mM potassium phosphate buffer (pH 7.4). The protocol: Bacillus cultures were grown at 30° C. with moderate aeration for 7 days. Spores were harvested by centrifugation at 10,900×g for 30 minutes at 4° C. and resuspended in 200 milliliters (ml) of sterile distilled water and washed 7 to 10 times, heated to 65° C. for 15 minutes to kill any vegetative cells, and stored at 4° C. Spore populations were determined from the average of 3 serial dilution plates.
B. globigii spores (500 microliters (μl)) were diluted to a concentration of 3.6×10^8 spores per ml in 20 millimolar (mM) potassium phosphate buffer (pH 7.4), and mixed with 500 μl of a 0.12 M solution of one or more of L-alanine, L-asparagine and D-glucose, together with DPA and other chemicals to test the effectiveness of various combinations as germinating agents. The phase change of the spores in the germinants was monitored at 450 nm over a period of 10 minutes.
Consider `O=C[C@H](O)[C@@H](O)[C@H](O)[C@H](O)CO` [20 mM D-glucose, D-glucose], for which the Percent germination is 7.0%.
In the case of `O=C(O)c1cccc(C(=O)O)n1` [20 mM DPA, pyridine-2,6-dicarboxylic acid], the Percent germination was found to be 7.3%.
Take `C[C@H](N)C(=O)O` [20 mM L-alanine, L-alanine]: the Percent germination amounted to 50.1%.
With `NC(=O)C[C@H](N)C(=O)O` [20 mM L-asparagine, L-asparagine], the Percent germination is 5.2%.
